# “And” between values parts separate entries of the source, which are not always exact repeats. Equal entries are not always repeated.
# Experiments:
# [1] = Cytotoxicity assay (CellTiter-Glo, 72 h), Jurkat; type: cell-based; conditions: human, Jurkat cells (T lymphoma), raw data (replicates)
# Description: (§1) Jurkat cells were cultured in RPMI1640 medium supplemented with 10% foetal bovine serum, penicillin (50 U/ml), streptomycin (50 μg/ml), and Glutamax. SKOV-3 cells were cultured in DMEM medium supplemented with 10% fetal bovine serum, penicillin (50 U/ml), and streptomycin (50 μg/ml). MESO-1 cells were cultured in RPMI1640 medium supplemented with 10% fetal bovine serum, penicillin (50 U/ml), and streptomycin (50 μg/ml). All cell lines were seeded in a 384-well plate at a density of 1000 cells/well in 20 μl of media and incubated at 37 °C in a humidified incubator with 5% CO2. After 4 h, 2-fold dilution samples resolved in DMSO were added to the cell culture at the concentration of 0.5% (0.1 μl) and incubated for 72 h. Cell viabilities were measured using a CellTiter-Glo luminescent cell viability assay and EnVision multilabel plate reader.
# [2] = Cytotoxicity assay (CellTiter-Glo, 72 h), SKOV-3; type: cell-based, human; conditions: human
# Description: as §1
# [3] = tested on: human ovarian adenocarcinoma SKOV-3 cells; assay: Cytotoxicity assay (CellTiter-Glo, 72 h), SKOV-3; type: cell-based; conditions: raw replicate data
# Description: as §1
compound,measurement,setting,value
"CO[C@H]1C[C@@H]2CC[C@@H](C)[C@@](O)(O2)C(=O)C(=O)N2CCCC[C@H]2C(=O)O[C@H]([C@H](C)C[C@@H]2CC[C@@H](O)[C@H](OC)C2)CC(=O)[C@H](C)/C=C(\C)[C@@H](O)[C@@H](OC)C(=O)[C@H](C)C[C@H](C)/C=C/C=C/C=C/1C [Compound 1, rapamycin, reference compound]","viability at 72 h, 0.0488281 uM",[1]; conc 0.0488281 uM,24.5%
same,"viability at 72 h, 0.0976562 uM",[1]; conc 0.0976562 uM,24%
same,"viability at 72 h, 0.195312 uM",[1]; conc 0.195312 uM,24.4%
same,"viability at 72 h, 0.390625 uM",[1]; conc 0.390625 uM,23.8%
same,"viability at 72 h, 0.78125 uM",[1]; conc 0.78125 uM,23.7%
same,"viability at 72 h, 1.5625 uM",[1]; conc 1.5625 uM,23.8%
same,"viability at 72 h, 3.125 uM",[1]; conc 3.125 uM,23.9%
same,"viability at 72 h, 6.25 uM",[1]; conc 6.25 uM,20.6%
same,"viability at 72 h, 12.5 uM",[1]; conc 12.5 uM,18.3%
same,"viability at 72 h, 25 uM",[1]; conc 25 uM,7.7%
same,viability at 72 h,"[2]; SKOV-3 cells (ovarian adenocarcinoma), SKOV-3 cells, 72 h, read-out: Plateau level of cell viability in the dose-response curve",~60%
same,"viability at 72 h, 9.53674e-05 uM","[2]; SKOV-3 cells (ovarian adenocarcinoma), conc 9.53674e-5 uM, raw replicate data, read-out: SKOV3 viability (%)",78.7%
same,"viability at 72 h, 0.000190735 uM","[2]; SKOV-3 cells (ovarian adenocarcinoma), conc 0.000190735 uM, raw replicate data, read-out: SKOV3 viability (%)",70.9%
same,"viability at 72 h, 0.00038147 uM","[2]; SKOV-3 cells (ovarian adenocarcinoma), conc 0.00038147 uM, raw replicate data, read-out: SKOV3 viability (%)",75.1%
same,"viability at 72 h, 0.000762939 uM","[2]; SKOV-3 cells (ovarian adenocarcinoma), conc 0.000762939 uM, raw replicate data, read-out: SKOV3 viability (%)",62.9%
same,"viability at 72 h, 0.00152588 uM","[2]; SKOV-3 cells (ovarian adenocarcinoma), conc 0.00152588 uM, raw replicate data, read-out: SKOV3 viability (%)",110%
same,"viability at 72 h, 0.00305176 uM","[2]; SKOV-3 cells (ovarian adenocarcinoma), conc 0.00305176 uM, raw replicate data, read-out: SKOV3 viability (%)",70.7%
same,"viability at 72 h, 0.00610352 uM","[2]; SKOV-3 cells (ovarian adenocarcinoma), conc 0.00610352 uM, raw replicate data, read-out: SKOV3 viability (%)",64.7%
same,"viability at 72 h, 0.012207 uM","[2]; SKOV-3 cells (ovarian adenocarcinoma), conc 0.012207 uM, raw replicate data, read-out: SKOV3 viability (%)",59.4%
same,"viability at 72 h, 0.0244141 uM","[2]; SKOV-3 cells (ovarian adenocarcinoma), conc 0.0244141 uM, raw replicate data, read-out: SKOV3 viability (%)",57.9%
same,"viability at 72 h, 0.0488281 uM","[2]; SKOV-3 cells (ovarian adenocarcinoma), conc 0.0488281 uM, raw replicate data, read-out: SKOV3 viability (%)",61.1%
same,"viability at 72 h, 0.0976562 uM","[2]; SKOV-3 cells (ovarian adenocarcinoma), conc 0.0976562 uM, raw replicate data, read-out: SKOV3 viability (%)",61.7%
same,"viability at 72 h, 0.195312 uM","[2]; SKOV-3 cells (ovarian adenocarcinoma), conc 0.195312 uM, raw replicate data, read-out: SKOV3 viability (%)",59.4%
same,"viability at 72 h, 0.390625 uM","[2]; SKOV-3 cells (ovarian adenocarcinoma), conc 0.390625 uM, raw replicate data, read-out: SKOV3 viability (%)",59.7%
same,"viability at 72 h, 12.5 uM","[2]; SKOV-3 cells (ovarian adenocarcinoma), conc 12.5 uM, raw replicate data, read-out: SKOV3 viability (%)",57.5%
same,"viability at 72 h, 25 uM","[2]; SKOV-3 cells (ovarian adenocarcinoma), conc 25 uM, raw replicate data, read-out: SKOV3 viability (%)",54.8%
same,"viability at 72 h, 0.78125 uM","[2]; SKOV-3 ovarian adenocarcinoma cells, conc 0.78125 uM, raw replicate data, read-out: SKOV3 viability (%)",55.3%
same,"viability at 72 h, 1.5625 uM","[2]; SKOV-3 ovarian adenocarcinoma cells, conc 1.5625 uM, raw replicate data, read-out: SKOV3 viability (%)",58.8%
same,"viability at 72 h, 3.125 uM","[2]; SKOV-3 ovarian adenocarcinoma cells, conc 3.125 uM, raw replicate data, read-out: SKOV3 viability (%)",57.4%
same,"viability at 72 h, 6.25 uM","[2]; SKOV-3 ovarian adenocarcinoma cells, conc 6.25 uM, raw replicate data, read-out: SKOV3 viability (%)",63.1%
same,SKOV3 viability (%),[3]; conc 9.53674e-5 uM,85.5% and 83.5%
same,SKOV3 viability (%),[3]; conc 0.000190735 uM,77.8%
same,SKOV3 viability (%),[3]; conc 0.00038147 uM,76.1% and 77.6%
same,SKOV3 viability (%),[3]; conc 0.000762939 uM,63.5% and 66.3%
same,SKOV3 viability (%),[3]; conc 0.00152588 uM,104.6% and 106.1%
same,SKOV3 viability (%),[3]; conc 0.00305176 uM,68.3% and 63.8%
same,SKOV3 viability (%),[3]; conc 0.00610352 uM,65.9%
same,SKOV3 viability (%),[3]; conc 0.012207 uM,65.2% and 58.2%
same,SKOV3 viability (%),[3]; conc 0.0244141 uM,61.9% and 60.6%
same,SKOV3 viability (%),[3]; conc 0.0488281 uM,65.4% and 58.1%
same,SKOV3 viability (%),[3]; conc 0.0976562 uM,60.9% and 62.0%
same,SKOV3 viability (%),[3]; conc 0.195312 uM,60.7% and 56.3%
same,SKOV3 viability (%),[3]; conc 0.390625 uM,59.9% and 61.0%
same,SKOV3 viability (%),[3]; conc 0.78125 uM,54.1% and 58.4%
same,SKOV3 viability (%),[3]; conc 1.5625 uM,63.0%
same,SKOV3 viability (%),[3]; conc 3.125 uM,54.7%
same,SKOV3 viability (%),[3]; conc 6.25 uM,63.2%
same,SKOV3 viability (%),[3]; conc 12.5 uM,56.9%
same,SKOV3 viability (%),[3]; conc 25 uM,55.5%
same,SKOV3 viability (%),[3]; conc 50 uM,16.3% and 24.9% and 9.3%

# Source: PMC7419507, “In vitro Cas9-assisted editing of modular polyketide synthase genes to produce desired natural product derivatives” (Nature Communications, 2020)
